Experimental data from US9775902B2, “Compounds and methods for treatment of stroke” (FIBROGEN, INC, priority 2006, dated 2017).
Read-outs that look alike come from different tables or passages of the source. Marks after values point to notes of the source that are not given here.

Columns and labels:
erythropoietin (EPO) [1] = test: EPO expression in Hep3B cells (QUANTIKINE immunoassay of conditioned media); assay type: cell-based, Human; conditions: for Fold Increase Over Control: EPO, vs 1% DMSO control; for EPO: conditioned media after overnight incubation with compound
Experimental: The effect of compounds of the present invention on expression of cytoprotective and neuroprotective factors in cells was evaluated as follows. Human cells derived from hepatocarcinoma (Hep3B) tissue (see, e.g., American Type Culture Collection, Manassas Va.) were seeded into 35 mm culture dishes and grown at 37° C., 20% O2, 5% CO2 in Minimal Essential Medium (MEM), Earle's balanced salt solution (Mediatech Inc., Herndon Va.), 2 mM L-glutamine, 0.1 mM non-essential amino acids, 1 mM sodium pyruvate, and 10% FBS. When cell layers reached confluence, the media was replaced with OPTI-MEM media (Invitrogen Life Technologies, Carlsbad Calif.) and cell layers were incubated for approximately 24 hours in 20% O2, 5% CO2 at 37° C. Various compounds of the present invention or 1% DMSO (negative control) were then added to existing media and incubation was continued overnight.
Following incubation, the conditioned media was collected from cell cultures and analyzed for erythropoietin (EPO) expression using a QUANTIKINE immunoassay (R&D Systems, Inc., Minneapolis Minn.) according to the manufacturer's instructions.

erythropoietin (EPO) [2] = test: EPO expression in Kelly neuroblastoma cells; assay type: cell-based; conditions: for EPO: conditioned media after overnight incubation
Experimental: (§1) The effect of compounds of the present invention on expression of cytoprotective and neuroprotective factors in neuroblastoma cells was evaluated as follows. Kelly neuroblastoma cells (see, e.g., DSMZ, cat# ACC-355, Braunschweig Germany) were treated with various compounds of the present invention or 1% DMSO (negative control). Following an overnight incubation, the conditioned media was collected from cell cultures and analyzed for erythropoietin (EPO) and vascular endothelial growth factor (VEGF) expression using a QUANTIKINE immunoassay (R&D Systems, Inc., Minneapolis Minn.) according to the manufacturer's instructions.

[3] = system: vascular endothelial growth factor (VEGF); test: VEGF expression in Kelly neuroblastoma cells; assay type: cell-based; conditions: for VEGF: conditioned media after overnight incubation
Experimental: as §1

erythropoietin = test: Plasma EPO in mice after intravenous injection; assay type: in vivo, Swiss Webster mice; conditions: mouse plasma, 20 mg/kg i.v., four hours after injection; for fold induction at 20 mg/kg: iv, 4 h, read-out: EPO Fold Increase
Experimental: (§2) The effect of compounds of the present invention on expression of cytoprotective and neuroprotective factors in vivo was evaluated as follows. In one series of experiments, male Swiss Webster mice (29-34 g) were administered various compounds of the present invention via intravenous injection into the caudal tail vein. Animals treated by intravenous injection received a 6 ml/kg volume of either 5% Dextrose with an equimolar amount of NaOH or Meglumine (vehicle control) or 20 mg/kg of a compound of the present invention in 5% dextrose with an equimolar amount of NaOH or Meglumine. Four hours after injection, the animals were anesthetized and exsanguinated. Plasma samples were collected in EDTA and heparin coated microtainer tubes. Plasma samples were assayed for erythropoietin and VEGF using commercially-available ELISA kits purchased from R & D Systems (Minneapolis Minn.).

VEGF = test: Plasma VEGF in mice after intravenous injection; assay type: in vivo, Swiss Webster mice; conditions: mouse plasma, 20 mg/kg i.v., four hours after injection; for fold induction at 20 mg/kg: iv, 4 h, read-out: VEGF Fold Increase
Experimental: as §2

[4] = system: C57BL/6 mice, permanent occlusion of the MCA; test: Permanent middle cerebral artery occlusion (pMCAO) in C57BL/6 mice: infarct volume and edema; assay type: in vivo; conditions: C57BL/6 mice pMCAO, 20-60 mg/kg i.v.; for inhibition in vivo at up to 20 mg/kg: Mus musculus, iv, 24 h, 24 hours after MCA occlusion, read-out: Percent Reduction in Infarct Volume
Experimental: The effect of compounds of the present invention on infarct volume and edema associated with stroke was examined in an animal model of ischemic stroke. In these studies, mice were subjected to permanent occlusion of the middle cerebral artery. Mice were anesthetized intraperitoneally with avertin (0.5 mg/g). Mice were then immobilized in a rodent stereotaxic frame (Kopf Instruments, Tujunga Calif.) and maintained with avertin as needed. The surgical area of the head was swabbed with 70% ethanol and a lateral incision was made between the right orbit and the right ear. […] The distal course of the middle cerebral artery (MCA) was visible through the translucent skull. A small burr-hole craniotomy was performed with a micro-drill (Fine Science Tools, Foster City Calif.). The meninges/dura was removed and the MCA was coagulated by bipolar diathermy. The muscle and soft tissue were replaced and the incision closed with vet-bond adhesive (3M, St. Paul Minn.). These studies were performed in two different mouse models of pMCAO as described below.
In one series of experiments, male C57BL/6 mice (25-35 g) were subjected to permanent occlusion of the MCA as described above. Compounds of the present invention were administered by intravenous injection at various times before or after MCA occlusion (see Table 7). Animals administered compound by intravenous injection received a 6 ml/kg volume of either 5% Dextrose with an equimolar amount of Meglumine (vehicle control) or 20-60 mg/kg of a compound of the present invention in 5% dextrose with an equimolar amount of Meglumine. Body temperature of the animals was maintained by use of a heating pad both during and after surgery. Twenty-four hours after MCA occlusion animals were euthanized with CO2 and their brains removed. After removal, the brain was sliced in 7 coronal sections, each 1 mm thick. The sections were placed rostral side down in a petri dish and stained with 1% Triphenyl tetrazolium chloride for 20 minutes at 37° C. for determination of infarct volume. Brain sections were then digitally photographed and analyzed for changes in infarct volume and extent of edema. Infarct volumes were determined by measuring the infarcted (i.e., non-stained) areas of each brain section and multiplying this value by the section thickness. Extent of edema was determined by the net increase in volume of the ipsilateral cortex compared to that of the contralateral cortex of brain sections.
The effect of compounds of the present invention administered at various times following the onset of stroke was examined further as follows. In these studies, changes in infarct volume were measured using an animal model of stroke when compounds of the present invention were administered from 0 to 8 hours following permanent MCA occlusion. In one series of experiments, male C57BL/6 mice (25-35 g) were subjected to permanent occlusion of the MCA as described above. Compound F was administered to the animals by a single intravenous bolus injection at various times up to 5 hours after MCA occlusion (see Table 8 below). Animals administered compound by intravenous injection received a 6 ml/kg volume of either 5% Dextrose with an equimolar amount of NaOH (vehicle control) or 60 mg/kg of Compound F in 5% dextrose with an equimolar amount of NaOH. Body temperature of the animals was maintained by use of a heating pad both during and after surgery. Changes in infarct volumes were determined as described above.
In another set of experiments, male C57BL/6 mice (25-35 g) were subjected to permanent occlusion of the MCA as described above. Compound F was administered by single intravenous bolus injection at various times up to 8 hours after MCA occlusion (see Table 9 below). Animals administered compound by intravenous injection received a 6 ml/kg volume of either 5% Dextrose with an equimolar amount of Meglumine (vehicle control) or 60 mg/kg of Compound F in 5% dextrose with an equimolar amount of Meglumine. […]

SMILES	Fold Increase Over Control (erythropoietin (EPO) [1])	EPO (erythropoietin (EPO) [1])	EPO Fold Increase (erythropoietin (EPO) [2])	EPO (erythropoietin (EPO) [2])	VEGF Fold Increase [3]	VEGF [3]	fold induction at 20 mg/kg (erythropoietin)	EPO (erythropoietin; mouse EPO ELISA kit (**))	fold induction at 20 mg/kg (VEGF)	VEGF (VEGF)	Percent Reduction in Edema ([4]; compound given 0 hr)	inhibition in vivo at up to 20 mg/kg ([4]; compound given 0 hr)	EPO (erythropoietin; human EPO ELISA kit (*))	inhibition in vivo at up to 20 mg/kg ([4]; compound given 4 hr after occlusion)
O=Cc1nc(C(=O)NCC(=O)O)c(O)c2cc(Oc3ccccc3)ccc12 [Compound AK, [(1-Formyl-4-hydroxy-6-phenoxy-isoquinoline-3-carbonyl)-amino]-acetic acid]	14.9	35.3 mIU/ml	2.23	42.2 mIU/ml	3.9	5698 pg/mL	62.8	2763 pg/mL	1.12	47 pg/mL	−12* %	13%		
Cc1nc(C(=O)NCC(=O)O)c(O)c2cc(-c3ccc(F)cc3)sc12 [Compound P, {[2-(4-Fluoro-phenyl)-4-hydroxy-7-methyl-thieno[2,3-c]pyridine-5-carbonyl]-amino}-acetic acid]	7.2	54.9 mIU/ml	13.90	262.8 mIU/ml	5.1	7453 pg/mL	5.88	62.3 pg/mL	1.15	45 pg/mL		37%		
O=C(O)CNC(=O)c1ncc2cc(Oc3ccccc3)ccc2c1O [Compound AC, [(4-Hydroxy-7-phenoxy-isoquinoline-3-carbonyl)-amino]acetic acid]	10.8	160.1 mIU/ml	11.9	73.8 mIU/ml	15.8	2503.8 pg/mL	2940		2.15	70 pg/mL		17%	294 mIU/ml	
N#Cc1nc(C(=O)NCC(=O)O)c(O)c2cc(Oc3ccc4c(c3)CCO4)ccc12 [Compound AO, {[1-Cyano-6-(2,3-dihydro-benzofuran-5-yloxy)-4-hydroxy-isoquinoline-3-carbonyl]-amino}-acetic acid]	83.4	83.4 mIU/ml	19.55	369.5 mIU/ml	4.6	6653 pg/mL	92.8	12719 pg/mL	0.97	38 pg/mL				55%
COc1cccc(Oc2cccc3c(O)c(C(=O)NCC(=O)O)nc(C#N)c23)c1 [Compound AP, {[1-Cyano-4-hydroxy-8-(3-methoxy-phenoxy)-isoquinoline-3-carbonyl]-amino}-acetic acid]	17.2	53.4 mIU/ml	1.44	27.2 mIU/ml	2.2	3266 pg/mL	20.1	3595 pg/mL	0.43	27 pg/mL				
Cc1nc2ccc(Oc3ccc4c(C#N)nc(C(=O)NCC(=O)O)c(O)c4c3)cc2o1 [Compound AQ, {[1-Cyano-4-hydroxy-6-(2-methyl-benzooxazol-6-yloxy)-isoquinoline-3-carbonyl]-amino}-acetic acid]	16.5	32.9 mIU/ml	4.34	82 mIU/ml	2.6	3795 pg/mL	23.8	11464 pg/mL	1.69	59 pg/mL				
O=C(O)CNC(=O)c1nc(-c2ccoc2)c2ccsc2c1O [Compound AI, [(4-Furan-3-yl-7-hydroxy-thieno[3,2-c]pyridine-6-carbonyl)-amino]-acetic acid]	6.1	7.9 mIU/ml	17.02	321.6 mIU/ml	4.8	7003 pg/mL	1.96	221 pg/mL	0.91	20 pg/mL				
O=C(O)CNC(=O)c1nc2cc(-c3ccc(Cl)cc3)sc2cc1O [Compound Q, {[2-(4-Chloro-phenyl)-6-hydroxy-thieno[3,2-b]pyridine-5-carbonyl]-amino}-acetic acid]	4.8	37.1 mIU/ml	2.80	52.9 mIU/ml	4.4	6369 pg/mL	1.61	17.1 pg/mL	1.28	50 pg/mL				
O=C(O)CNC(=O)c1nc(Br)c2cc(Br)sc2c1O [Compound AD, [(2,4-Dibromo-7-hydroxy-thieno[3,2-c]pyridine-6-carbonyl)-amino]-acetic acid]	6.5	34.9 mIU/ml	7.3	138.2 mIU/ml	3.5	5123.0 pg/mL	27.4	1997 pg/mL	2.54	66 pg/mL				
